# Measured values as given in US10391166B2, “Short oligonucleotides as vaccine adjuvants and therapeutic agents” (priority 2013, dated 2019).
# “Also recorded” adds a separate entry of the source.
# Tests used:
# RIG-I and NOD2 [1] = format: cell-based; settings: receptor-deficient cells, exogenous RIG-I and NOD2
# M. tuberculosis [2] = test system: M. tuberculosis; design: species or system C57Bl/6 mice; settings: mouse, in vivo
# [3] = test system: IRF3-luciferase reporter gene; assay: IRF3-luciferase reporter induction in HLE A549 cells (primary assay for NOD2 activation); format: cell-based, human; settings: 12 h incubation
# Procedure: The evaluation of SMNH compounds for NOD2 activation was conducted by primary, secondary, and tertiary assays. In the primary assays, SMNH compounds were tested for the induction of IRF3 expression in HLE A549 cells, which are known to endogenously express NOD2. […] SB 44, a mixture of two isomers Rp and Sp, is a prodrug of SB 40. SB 1B—the Rp isomer of SB 44 and is shown as SB 44-1 in the FIGS. 1-2.
# IRF3-luciferase transfected cells were incubated with either DMSO only (UT) or SMNH compounds (μM). Following 12 h incubation, luciferase activity was measured using Dual-Luciferase Reporter Assay System (Promega) according to the manufacturer's protocol. Transfection efficiency was normalized by measuring the expression of renilla Luciferase. Luciferase units (i.e., fold induction) were measured by standard methodology (mean±standard deviation; 3 independent experiments). The results are depicted in FIG. 1.
# [4] = test system: peripheral blood mononuclear cells (PBMCs); assay: Multiplex assay for 28 cytokines in PBMCs; format: cell-based, human; settings: up to 50 μM
# [5] = Procedure: The objectives of this study were to determine potential toxic effects of SB 44 following daily oral dose administration for 14 days, and to evaluate the genotoxicity of SB 44 as determined by micronucleus evaluation. Male and female Sprague-Dawley rats were administered SB 44 daily at doses of 50, 200 and 500 mg/kg/day for 14 consecutive days. […] Micronucleus evaluations were performed to determine the potential genotoxicity of SB 44. Necropsies were performed on Day 15 for rats in the main study group and on Day 28 for rats in the recovery group.
# NOD2 = target: T1, NOD2 (Homo sapiens, UniProt Q9HC29); assay: IRF3-luciferase assay in HEK 293 cells transfected with NOD2; format: cell-based; settings: HEK 293 transfected with NOD2, pcDNA and IRF3-luciferase; 1 μM; 12 h
# T1 construct: expressed in transfected cells; host or cells: HEK 293
# T1 sequence (Q9HC29 whole entry, species assumed): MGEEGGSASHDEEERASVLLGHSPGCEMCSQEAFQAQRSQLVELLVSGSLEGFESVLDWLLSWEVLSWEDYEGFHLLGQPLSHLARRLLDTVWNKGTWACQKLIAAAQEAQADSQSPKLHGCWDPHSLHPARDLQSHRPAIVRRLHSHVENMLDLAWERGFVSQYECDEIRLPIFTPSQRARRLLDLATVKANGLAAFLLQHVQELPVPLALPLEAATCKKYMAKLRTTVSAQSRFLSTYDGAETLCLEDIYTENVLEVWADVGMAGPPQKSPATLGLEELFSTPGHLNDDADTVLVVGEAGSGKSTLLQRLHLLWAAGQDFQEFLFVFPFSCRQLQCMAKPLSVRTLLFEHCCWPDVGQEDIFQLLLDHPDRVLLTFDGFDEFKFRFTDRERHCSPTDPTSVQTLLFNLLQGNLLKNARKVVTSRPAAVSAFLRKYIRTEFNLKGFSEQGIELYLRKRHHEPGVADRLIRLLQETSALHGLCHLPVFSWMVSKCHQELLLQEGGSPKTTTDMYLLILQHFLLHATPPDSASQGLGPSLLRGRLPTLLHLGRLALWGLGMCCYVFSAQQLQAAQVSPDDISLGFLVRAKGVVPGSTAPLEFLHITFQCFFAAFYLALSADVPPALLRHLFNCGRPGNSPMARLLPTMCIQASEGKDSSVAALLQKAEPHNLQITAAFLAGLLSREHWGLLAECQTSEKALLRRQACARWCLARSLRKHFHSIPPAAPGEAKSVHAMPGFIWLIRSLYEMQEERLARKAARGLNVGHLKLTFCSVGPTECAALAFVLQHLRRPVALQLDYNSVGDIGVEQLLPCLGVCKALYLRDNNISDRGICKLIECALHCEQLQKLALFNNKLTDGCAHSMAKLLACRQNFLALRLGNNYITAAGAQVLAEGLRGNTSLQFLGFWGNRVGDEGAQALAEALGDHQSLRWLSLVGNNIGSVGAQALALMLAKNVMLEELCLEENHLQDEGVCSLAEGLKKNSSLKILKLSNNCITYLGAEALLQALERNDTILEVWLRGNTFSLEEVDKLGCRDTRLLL
# Procedure: HEK 293 cells were transfected with NOD2, pcDNA and IRF3-luciferase. The cells were then incubated with ssRNA (0.5 mg/ml) or SMNH compounds (1 μM). Following 12 h incubation, Luciferase activity was measured as described previously. The luciferase assay results are presented as mean±S.D. from three independent experiments (detailed materials and methods employed in these assays, see: ref (28). The results are depicted in FIG. 2.
# PBMCs = format: cell-based
# [6] = test system: C57Bl/6 mouse bone marrow derived macrophages; format: cell-based
# [7] = human liver S9 fractions
# Procedure: SB 44 (10 μM) was incubated with a mix containing S9 fraction (pooled from human) (1 mg/ml), NADPH (1.3 mM) UDPGA (5 mM), Alamethicin (10 μg/ml) in 1 ml of 1×PBS buffer. S-(5′-adenosyl)-L-methionine iodide (0.1 mM), adenosine 3′-phosphate 5′-phosphosulfate lithium salt hydrate (0.1 mM) and acetyl CoA (1 mM). The metabolite samples were evaluated by HPLC and LC/MS analysis.
# MHC-II = format: cell-based, mouse
# [8] = test system: MDBK, Vero, and HFF cell lines; assay: in vitro; settings: cell line not specified (table footnote)
# Procedure: (§1) SB 44 was subjected to cytotoxicity evaluation against a panel of cell lines including Madin-Darby bovine kidney (MDBK), Vero, and HFF (human foreskin fibroblasts) to determine their CC50. Standard Microculture Tetrazolium Assay (MTT) assays were performed in 96-well plates using MDBK, Vero, and HFF cell lines (obtained from American Type Cell Collection). Controls included the nucleoside analogs 3TC, AZT, and ddC, as well as media without drugs. SDS was used as a positive cytotoxic control. All prodrugs were tested in triplicate at concentrations of 100, 300, and 1000 μM. Following a 24-hour incubation of cells with the test substance, the MTT assay was carried out.
# (§2) Standard MTT assays were performed in 96-well plates using the Promega CellTiter96 Non-radioactive Cell Proliferation Assay Kit in conjunction with a 96-well Plate Reader (ThermoMax, Molecular devices), and MDBK, Vero, and HFF cell lines (obtained from ATCC). Several controls were employed including the nucleoside analogs 3TC, AZT, and ddC, as well as, media without drugs. SDS was used as a positive cytotoxic control. The compounds were tested in triplicate at concentrations of 100, 300, and 1000 μM. Following a 24-hour incubation of cells with the test substance, the MTT assay was carried out.
# in vitro = settings: bovine (MDBK), African green monkey (Vero), human (HFF)
# Procedure: as §1, §2
# RIG-I and NOD2 [9] = assay: Induction of responder genes RIG-I and NOD2; format: cell-based
# interferon-β (IFN-β) = assay: IFN-β production from human lung epithelial A549 cells; format: cell-based
# IL-1β = assay: Mature IL-1β ELISA in mouse bone marrow derived primary macrophages; format: cell-based; settings: alone or with MDP or BCG, caspase blockade with ZVAD-fmk
# Procedure: C57Bl/6 mouse bone marrow derived primary macrophages were treated with SB 1A or SB 1B alone, MDP alone or in combination as indicated for 4 hrs. BCG was used for infection for 4 hrs and supernatants collected 18 hr later titrated for mature IL1β using ELISA. Macrophages were first treated with ZVAD-fmk (2 hrs) for caspase blockade followed by activation with SB 1A and SB 1B (4 hrs) and BCG infection (4 hrs). Cytokine was measured 18 hrs later.
# M. tuberculosis [10] = test system: M. tuberculosis; design: species or system C57Bl/6 mice; settings: mouse, in vivo; remark: listed apart in the source
smiles,measurement,setting,value
COC1C(OP(=O)(S)OCC2OC(n3cnc4c(N)ncnc43)CC2O)C(CO)OC1n1ccc(=O)[nH]c1=O (mixture of isomers) [SB 40],enhancement of ISG-56 expression over that induced by PolyI-PolyC,RIG-I and NOD2 [1],2 fold
same,anti-TB T cell function of mice,M. tuberculosis [2],dramatic increase in anti-TB T cell function of mice
same,IRF3 activation (IRF3-luciferase),[3],induced IRF3 activation
same,cytokine induction in human PBMC cultures,[4],did not cause cytokine induction
same,"systemic exposure females versus males, largest difference","[5]; Day 14, 500 mg/kg dose groups",about twofold
same,Day 14 Cmax and AUClast values versus Day 1,"[5]; SB 40 in plasma, each dose of SB 44",higher than those on Day 1
same,dose relationship for Cmax and AUClast,"[5]; SB 40 in plasma, male and female rats, Days 1 and 14",nonlinear dose relationship
same,IRF3 activation mediated via NOD2,NOD2,mediated via NOD2 activation
same,IFN production in the presence of BCG,PBMCs,modest augmentation of IFN production
same,antigen presentation (Antigen-85B) in macrophages,[6],enhance antigen presentation in vitro
same,phase II conjugative reactions,[7],no apparent evidence of any phase II conjugative reactions
same,surface expression of MHC-II,MHC-II,increase MHC-II in MΦs
same,CC50,[8],> 1000 µM
COC1[C@@H](OP(=O)(OC[C@H]2O[C@@H](n3cnc4c(N)ncnc43)C[C@H]2O)SCOC(=O)OC(C)C)[C@@H](CO)O[C@H]1n1ccc(=O)[nH]c1=O (stereo partly drawn) [Compound 3],CC50 at 24 h,in vitro,> 1000 µM
COC1C(OP(=O)(OCC2OC(n3cnc4c(N)ncnc43)CC2O)SCOC(=O)OC(C)C)C(CO)OC1n1ccc(=O)[nH]c1=O (stereo not drawn) [SB 1B],induction of responder genes RIG-I and NOD2,RIG-I and NOD2 [9],induction of responder genes RIG-I and NOD2
same,production of IFN-β,interferon-β (IFN-β),results in production of IFN-β
same,induction of mature IL-1β,IL-1β,induce IL-1β only in combination with either MDP or intact BCG bacilli
same,Mtb counts of lungs,M. tuberculosis [2],reducing Mtb counts of lungs better than either BCG or MDP+BCG
same,Mtb counts of spleens,M. tuberculosis [2],better than BCG vaccine in reducing Mtb counts of spleens
same,adjuvant efficacy with BCG vaccine against tuberculosis,M. tuberculosis [2],more efficacious as an adjuvant than SB 44; also recorded: better than muramyl dipeptide (MDP) as adjuvants
same,anti-TB T cell function of mice,M. tuberculosis [2],dramatic increase in anti-TB T cell function of mice
same,numbers of multi-functional T cells,M. tuberculosis [2],enhances the numbers of multi-functional T cells compared to BCG vaccine
same,tetramer specific CD8 T cells,M. tuberculosis [2],comparable levels of tetramer specific CD8 T cells
same,IRF3 activation (IRF3-luciferase),[3],induced IRF3 activation
same,antigen specific CD8 / memory T cells in lungs of re-challenged mice,M. tuberculosis [10],boost the magnitude of antigen specific memory T cells; also recorded: induces a robust expansion of antigen specific CD8 T cells
same,protection against re-challenge of tuberculosis,M. tuberculosis [10],protects twice as better than BCG; also recorded: induce protection against re-challenge of tuberculosis in mice
same,recall response against re-challenge with tuberculosis,M. tuberculosis [10],retain the ability to mount a better recall response
same,IRF3 activation mediated via NOD2,NOD2,mediated via NOD2 activation
same,antigen presentation (Antigen-85B) in macrophages,[6],enhance antigen presentation in vitro; also recorded: retain full activity
same,surface expression of MHC-II,MHC-II,increase MHC-II in MΦs
